Test [1] relates to noncancer human lung fibroblast cell line (MRC-5). Put plainly: Neutral red cytotoxicity assay, MRC-5. The class given is cell-based. The conditions noted are these: MRC5, isolated compounds, 72 h, mean ± SD of three replicates, read-out: IC50 (μg/mL) MRC-5. The procedure:
The human cancer cells KB, Ca Ski, MCF-7, HCT-116, A549, and noncancer human cell lines (MRC-5) were purchased from the American Tissue Culture Collection (ATCC, USA). The supplemented RPMI 1640 media and eagle minimum essential medium (EMEM) were purchased from Sigma-Aldrich, USA. The supplements or antibiotics such as foetal bovine serum (FBS), penicillin/streptomycin (P/S) (100 μg/mL), amphotericin B (50 μg/mL), and accutase were purchased from PAA Laboratories, Austria. Sodium pyruvate (11 mg/mL) purchased from Sigma-Aldrich, USA. The cells were cultured in a SHEL LAB water-jacketed CO2 incubator with […] tissue culture flasks (Nunc, Denmark), which was observed routinely under inverted microscope (Leica DMI3000 B, Germany) for any contamination and seeded into 96-well flat bottom microtiter plate (Nunc, Denmark). The extract or pure compounds was dissolved in dimethyl sulfoxide (DMSO, Molecular Biology Grade, >99.9%) from Sigma-Aldrich, USA. Microtiter plate incubator shaker (LT Biomax 500) was used and absorbance was measured at 540 nm using an ELISA microplate reader (EMax microplate reader of Molecular Devices, USA). MCF-7 and Ca Ski were cultured in RPMI 1640 media supplemented with 10% v/v FBS, P/S, and amphotericin B and MRC-5 in EMEM media with 10% v/v FBS, P/S, amphotericin B, and sodium pyruvate. The cells were cultured in tissue culture flask in 5% CO2 incubator kept at 37°C in a humidified atmosphere and observed routinely under inverted microscope from any contaminations. Each fresh medium was replaced every 2 or 3 days until cell confluence was achieved and the cells were detached by using accutase.
The in vitro cytotoxicity activity was performed using the neutral red cytotoxicity assay based on the initial protocol as described earlier with some modifications. Briefly, cells were detached from the tissue culture flask with 1.0 mL solution of accutase and PBS solution. The cell pellet was obtained by centrifugation at 1,000 rpm for 5 minutes. The density of the viable cells was counted by 0.4% of trypan blue exclusion in a haemocytometer. Cells were then plated in 96-well microtiter plate (Nunc), at a concentration of 1 × 10^4 cells/well and incubated in a CO2 incubator at 37°C to allow the cells to adhere. After 24 h, the cells were treated with six different concentrations, that is, 1, 10, 25, 50, 75, and 100 μg/mL of each tested agent in three replicates. The plates were incubated for 72 h at 37°C in a 5% CO2 incubator. The untreated cells were regarded as a negative control, whilst cells incubated only with DMSO (0.5%, v/v) were used as a vehicle control. No effect due to the DMSO was observed. Doxorubicin was used as the positive control. After 72 h, the old medium was substituted with fresh medium containing 50 μg/mL neutral red. The 96-well plates were placed into incubator for 3 h. This is to allow the uptake of the vital dye into the lysosomes of viable and undamaged cells. Then, the media was discarded and cells were washed with 200 μL of neutral red washing solution. The dye was eluted from the cells by adding neutral red resorb solution (200 μL). The plate was further incubated for 30 min with rapid agitation on a microtiter plate shaker. The optical density (OD) of the eluted dye was read at 540 nm using a microplate reader. The experiments were conducted in triplicates. […] Cytotoxicity of each test agent is expressed as IC50 value. […]

The subject of test [2] is active caspase-3 in HCT-116 cells. Nature of the test: Flow cytometric active caspase-3 assay, HCT-116. The class given is cell-based, human. The procedure: Caspases are key mediators of cell death. Caspase-3 activity assay was performed using FITC Active Caspase-3 Apoptosis Kit (BD Pharmingen). These probes bind covalently and irreversibly to the active site of the active caspase heterodimer emitting the green fluorescent signal detected by the FL-1 channel. Briefly, the cancer cells were treated with curzerenone (25, 40, and 50 μg/mL) and alismol (12.5, 25, and 40 μg/mL) for 48 h. The assay was performed based on the manufacturer's protocol. Cells were analyzed using BD Accuri C6 flow cytometry and BD CFlow software.

Molecules are shown by their SMILES. In brackets after ≈: the same amount, converted by molar mass.

Consider `C=C1CCC(C(C)C)=CC2C1CC[C@@]2(C)O` (stereo partly shown) [Alismol, alismol], for which the IC50 in test [1] is > 100 µg/mL. In test [2] (HCT-116, 40 μg/mL, 48 h), the “highest increment of caspase-3 activity” value was 45 folds.

With `C=CC1(C)Cc2occ(C)c2C(=O)C1C(=C)C` (stereo not shown) [Curzerenone, curzerenone], the IC50 in test [1] was 20 ± 1.2 µg/mL (≈ 86.8 µM). Also, the “highest increment in caspase-3 activity compared to untreated cells” value in test [2] (HCT-116, 48 h, concentration not given) amounted to 100 folds.
